In US4767624A, “Decubital remedy” (priority 1985, dated 1988):
Like-named read-outs stand apart in the source and are kept apart here.

How the values were obtained:
Phototoxicity = assay type: in vivo; details: 1% and 10% in squalane
skin [1] = experiment: Patch test; assay type: in vivo; details: 1% in squalane
heart muscle = details: ischemic state; cited from earlier work
skin [2] = experiment: Cumulative irritation; assay type: in vivo; details: 1% in squalane
[3] = cited from earlier work
Wistar rats = experiment: Subacute oral toxicity, rats; assay type: in vivo; details: oral, 40, 200 and 1,000 mg/kg/day, 5 weeks
Procedure: (§1) Ubidecarenone was continuously and orally administered to male and female Wistar rats at doses of 40, 200 and 1,000 mg/kg/day for 5 weeks and to male and female rabbits at doses of 60 and 600 mg/kg/day for 23 days.

skin [4] = experiment: Primary cutaneous irritation; assay type: in vivo
[5] = system: radiation dermatitis or radiation ulcers; details: previous trial use, publications (1) and (2); cited from earlier work
[6] = Stability upon cutaneous administration; assay type: physicochemical
[7] = Challenge (Adjuvante & patch method); assay type: in vivo; details: induction 5% acetone
From the text: Challenge Induction: 5% acetone
(Adjuvante & patch method)

[8] = Optical challenge (Adjuvante & strip method); assay type: in vivo; details: induction 10% acetone
From the text: |(Adjuvante & strip method)

Blepharo-irritation = assay type: in vivo; details: 1% in squalane
rabbits = experiment: Subacute oral toxicity, rabbits; assay type: in vivo; details: 60 and 600 mg/kg/day, 23 days
Procedure: as §1

## COC1=C(OC)C(=O)C(C/C=C(\C)CC/C=C(\C)CC/C=C(\C)CC/C=C(\C)CC/C=C(\C)CC/C=C(\C)CC/C=C(\C)CC/C=C(\C)CC/C=C(\C)CCC=C(C)C)=C(C)C1=O [Ubidecarenone]
Phototoxicity
  Phototoxicity, conclusion: low phototoxicity
Skin [1]
  Patch test: 0/54
  Patch test, conclusion: low skin irritation
Heart muscle
  damage of ischemic cardiac muscular tissue: reduce the damage
  percent oxygen utilization in heart muscle: improve the percent oxygen utilization in heart muscle
Skin [2]
  Cumulative irritation: 0.3
  Cumulative irritation, conclusion: low skin irritation
[3]; methanol
  solubility: scarcely soluble
[3]; oil
  solubility: oil-soluble
[3]; water
  solubility: scarcely soluble
Wistar rats
  difference from controls in general conditions, blood test, urine test and morphological observation: Neither rats nor rabbits developed any difference compared with their respective controls
Skin [4]; 1% in squalane
  Primary cutaneous irritation: 0.1
  Primary cutaneous irritation, conclusion: low skin irritation
Skin [4]; cutaneous administration, summary of Table 1
  irritation to the skin: low irritation to the skin
[5]
  effectiveness in radiation dermatitis or radiation ulcers: superb effectiveness
[6]
  stability upon cutaneous administration: good stability
[7]; 1% in acetone
  Challenge: 0/10
[7]; 5% and 1% in acetone
  Challenge, conclusion: low challenge
[7]; 5% in acetone
  Challenge: 0/10
[8]; 0.5% in acetone
  Optical challenge: 0/5
[8]; 0.5-10% in acetone
  Optical challenge, conclusion: low optical challenge
[8]; 1% in acetone
  Optical challenge: 0/5
[8]; 2% in acetone
  Optical challenge: 0/5
[8]; 5% in acetone
  Optical challenge: 0/5
[8]; 10% in acetone
  Optical challenge: 0/5
Blepharo-irritation
  Blepharo-irritation, conclusion: low blepharo-irritation
rabbits
  difference from controls in general conditions, blood test, urine test and morphological observation: Neither rats nor rabbits developed any difference compared with their respective controls
